Test results from patent US6710048B2, “Pyrazine derivatives as modulators of tyrosine kinases” (Ortho-McNeil Pharmaceutical, Inc., priority 2000, dated 2004).
Read-outs that look alike come from different tables or passages of the source.

Biological target: T1, CDK1 (cyclin dependent kinase 1) / cyclin B (Homo sapiens, UniProt P06493)
T1 construct: purchased New England Biolabs 6020; host or cells: insect cells
Test: CDK1 kinase assay
Assay type: biochemical
Experimental: The term n.d. means not tested.
Assays to test compound inhibition of other kinases were preformed using methods that measure the amount of phosphorylation of a biotinylated peptide substrate. Biotinylated peptide substrates were selected from the literature as appropriate for the enzyme being evaluated. The general procedure used to assay for kinase activity is as follows: A kinase reaction mix was prepared in 50 mM Tris-HCl pH=8, 10 mM MgCl2, 0.1 mM NaVO4, 1 mM DTT, 5-10 μM ATP, 0.25-1 μM biotinylated peptide substrate, 0.2-0.8 μCuries per well ^33P-γ-ATP [2000-3000 Ci/mmol]. Assay conditions vary slightly for each protein kinase, for example, insulin receptor kinase requires 10 mM MnCl2 for activity and Calmodulin-dependent protein kinase requires calmodulin and 2 mM CaCl2. The reaction mixture was dispensed into the wells of a streptavidin coated Flashplate and 1 μl drug stock in 100% DMSO was added to a 100 μl reaction volume resulting in a final concentration of 1% DMSO in the reaction. Enzyme was diluted in 50 mM Tris-HCl pH=8.0, 0.1% BSA and added to each well. The reaction was incubated for one hour at 30° C. in the presence of compound. After one hour the reaction mix was aspirated from the plate and the plate was washed with PBS containing 100 mM EDTA. The plate was read on a scintillation counter to determine ^33P-γ-ATP incorporated into the immobilized peptide. […] A maximum and minimum signal for the assay was determined on each plate. The IC50 was calculated from the dose response curve of the percent inhibition of the maximum signal in the assay according to the formula [max signal−background/test compound signal−background (100)=% inhibition] by graphing the percent inhibition against the log concentration of test compound. Known inhibitor compounds appropriate for the kinase being assayed were also included on each plate.
VEGF-R (vascular endothelial growth factor receptor-2) is a fusion protein containing a polyhistidine tag at the N-terminus followed by amino acids 786-1343 of the rat VEGF-R2 kinase domain (GenBank Accession #U93306). CDK1 (cyclin dependent kinase 1) is isolated from insect cells expressing both the human CDK1 catalytic subunit and its positive regulatory subunit cyclin B (New England Biolabs, Beverly, Mass., Cat. #6020). CDK4 (cyclin dependent kinase 4) contains amino acids 769 to 921 of the mouse […] protein found in the GST-retinoblastoma protein construct (Santa Cruz Biotechnology, Santa Cruz, Calif.; Cat. #SC-4112). Insulin Receptor Kinase consists of residues 941-1313 of the cytoplasmic domain of the beta-subunit of the human insulin receptor (BIOMOL, Plymouth Meeting, Pa., Cat. #SE-195). Protein Kinase A is the catalytic subunit of cAMP dependent protein kinase-A purified from bovine heart (Upstate Biotech, Lake Placid, N.Y., Cat#14-114). PKC (protein kinase-C) is the gamma or beta isoform of the human protein produced in insect cells (BIOMOL, Plymouth Meeting, Pa., Cat. #SE-143). Casein Kinase 1 is a truncation at amino acid 318 of the C-terminal portion of the rat CK1 delta isoform produced in E.coli (New England Biolabs, Beverly, Mass., Cat. #6030). Casein Kinase 2 includes the alpha and beta subunits of the human CK2 protein produced in E.coli (New England Biolabs, Beverly, Mass., Cat. #6010). Calmodulin Kinase (calmodulin-dependent protein kinase 2) is a truncated version of the alpha subunit of the rat protein produced in insect cells (New England Biolabs, Beverly, Mass., Cat. #6060). Glycogen Synthase Kinase-3 is the beta isoform of the rabbit enzyme produced in E. coli (New England Biolabs, Beverly, Mass., Cat. #6040). MAP Kinase is the rat ERK-2 isoform containing a polyhistidine tag at the N-terminus produced in E. coli. and activated by phosphorylation with MEK1 prior to purification (BIOMOL, Plymouth Meeting, Pa., Cat. #SE-137). EGFR (epidermal growth factor receptor) is purified from human A431 cell membranes (Sigma, St. Louis, Mo., Cat.# E3641). […]

[1] = Table 4 kinase selectivity, 10 = approximate value, read-out: IC50, Assay 2 CDK1
[2] = Tables 1-3, >10 or >100 = no 50% inhibition at highest dose tested, read-out: CDK IC50

T1 sequence (P06493 whole entry): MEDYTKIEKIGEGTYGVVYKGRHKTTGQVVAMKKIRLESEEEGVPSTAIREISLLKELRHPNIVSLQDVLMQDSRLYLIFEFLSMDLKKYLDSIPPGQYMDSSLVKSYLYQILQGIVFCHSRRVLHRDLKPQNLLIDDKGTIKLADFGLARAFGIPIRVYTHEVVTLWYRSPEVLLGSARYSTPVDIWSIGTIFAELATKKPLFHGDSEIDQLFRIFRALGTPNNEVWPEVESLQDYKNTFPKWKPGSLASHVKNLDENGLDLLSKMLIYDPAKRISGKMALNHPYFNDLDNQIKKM
T1 sequence (P14635 whole entry partner): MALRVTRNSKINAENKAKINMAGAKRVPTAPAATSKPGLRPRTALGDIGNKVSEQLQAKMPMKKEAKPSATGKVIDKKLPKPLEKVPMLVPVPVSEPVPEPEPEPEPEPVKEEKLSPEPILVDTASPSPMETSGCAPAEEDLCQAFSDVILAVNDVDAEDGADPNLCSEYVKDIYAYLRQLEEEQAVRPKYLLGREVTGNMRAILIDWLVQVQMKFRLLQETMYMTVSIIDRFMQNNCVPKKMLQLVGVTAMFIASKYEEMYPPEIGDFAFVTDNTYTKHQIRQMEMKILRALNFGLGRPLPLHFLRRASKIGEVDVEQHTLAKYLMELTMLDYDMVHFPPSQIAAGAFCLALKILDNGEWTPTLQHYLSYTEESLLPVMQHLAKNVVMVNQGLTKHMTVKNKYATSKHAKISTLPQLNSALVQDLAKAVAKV

Row | SMILES | IC50 [1] | IC50 [2]
1 | OCCCNc1cncc(-c2cncc(Nc3cccc(Cl)c3)n2)c1 [Cmd 4] | > 10 µM | 5.96 µM
2 | Clc1cccc(Nc2cncc(-c3cncc(NCCCc4cccnc4)c3)n2)c1 [Cmd 72] | > 100 µM | > 10 µM
3 | Clc1cccc(Nc2cncc(-c3cncc(NCCCn4cccn4)c3)n2)c1 [Cmd 75] | > 100 µM | > 10 µM
4 | Clc1cccc(Nc2cncc(-c3cncc(NCCCn4cncn4)c3)n2)c1 [Cmd 76] | > 100 µM | > 10 µM
5 | OCCCCNc1cncc(-c2cncc(Nc3cccc(Cl)c3)n2)c1 [Cmd 32] | > 100 µM | > 100 µM
6 | CN(C)CCCNc1cncc(-c2cncc(Nc3cccc(Cl)c3)n2)c1 [Cmd 35] | > 10 µM | ~10 µM
7 | Clc1cccc(Nc2cncc(-c3cncc(NCCCc4ccncc4)c3)n2)c1 [Cmd 71] | > 100 µM | > 10 µM
8 | O=C(NCCCO)c1cncc(-c2cncc(Nc3cccc(Cl)c3)n2)c1 [Cmd 39] | 34.8 µM | 34.8 µM
9 | Clc1cccc(Nc2cncc(-c3cncc(NCCCN4CCCCC4)c3)n2)c1 [Cmd 73] | 6.1 µM | 3.24 µM
10 | CN(C)CCNc1cncc(-c2cncc(Nc3cccc(Cl)c3)n2)c1 [Cmd 33, N′-[5-[6-[(3-chlorophenyl)amino]pyrazinyl]-3-pyridinyl]-N^2,N^2-dimethyl-1,2-ethanediamine] | > 10 µM | ~10 µM
